Test results: patent US20070238700A1, “N-PHENYL-1,1,1-TRIFLUOROMETHANESULFONAMIDE HYDRAZONE DERIVATIVE COMPOUNDS AND THEIR USAGE IN CONTROLLING PARASITES” (priority 2006, published 2007)
Read-outs that look alike come from different tables or passages of the source.

Columns and labels:
Rhipicephalus sanguineus [1] = test: Dose response protocol for topical application on brown dog ticks (LD50); details: 24 h mortality, probit analysis
Description: e) Dose response protocol for topical application on brown dog ticks (Rhipicephalus sanguineus): The test determines the level of insecticidal activity of sample compounds or formulations when applied topically on brown dog ticks. Sample compounds were stored prior to use in a freezer (−5±1° C.), unless otherwise specified.
• Mortality: A tick is defined as dead after it gives no apparent response when touched lightly or gently breathed upon, while observed for 30 seconds. • LD50 (Lethal Dose 50): The dose of a topically applied treatment at which 50% of the dog ticks are killed. • Reference compound: To assess an experimental compound for significant acaricidal activity a single dose level is chosen, which is based upon known results from previous experiments using a commercially available active i.e., a reference compound. The reference compound selected is one in common use, and one that has a similar mode of action against the Brown Dog Tick (i.e., the test species), • Recovery container: A recovery container consists of a 500 ml round plastic container measuring 115 mm diameter and 70 mm height, with a tight fitting lid that has 10 small (˜1 mm) holes inserted for air exchange. A 90 mm diameter piece of filter paper was placed on the bottom of the container and moistened with 1 mL of distilled water.
Adult, mixed sex, Brown Dog Ticks (Rhipicephalus sanguineus) were reared as follows: (i) cultured, (ii) transferred unfed, to a testing laboratory, and (iii) then maintained under controlled conditions (i.e., temp. 18°±2° C., humidity 75±5% RH). The ticks used were selected for vigor prior to testing, i.e., capable of actively walking and responsive to being touched or gently breathed upon.
During the testing, the temperature was maintained at 25±1° C. and the humidity was ambient. Seven dose levels (concentrations) of sample compound, in the form of serial dilutions in acetone, were derived from a pilot study and covered a range that produced very low to very high mortality. Groups of ten ticks were treated topically (on the abdomen) with 1 μL of a single dose level of the sample compound. Each test was replicated four times, i.e., employing a total of 40 ticks per dose level of each sample compound. As a control, ten ticks were treated with solvent only (acetone) for each test. Following the treatment, the ticks were held in recovery containers maintained under appropriate rearing conditions for 24 hours. Mortality resulting from the treatments was recorded at 24 hours. […] Press, London (1971).]

Ctenocephalides felis [2] = test: Ctenocephalides felis adulticide assay: C. felis dose response (LC50)
Description: c) Ctenocephalides felis Adulticide Assay: C. felis Dose Response
The purpose of this example was to determine the LC50 when cat fleas were contacted with a glass surface treated with sample compounds or formulations prepared as described above. […] The test species was the cat flea (Ctenocephalides felis). The strain used was obtained from external suppliers as pupae and held in the laboratory under testing conditions until the adults had emerged. Fifteen (15) fleas were used in a minimum of four replicates for each dose level (total of 60 fleas per dose level). The insects were selected to be in the adult life stage, aged between 3 and 7 days post emergence.
The compounds to be tested were dissolved in acetone just prior to testing. Samples of compounds were stored in a refrigerator (5±1° C.) unless otherwise specified. During the mortality testing, the temperature was maintained at 25±1° C. Humidity was maintained at 75±5%. The base (area=159 mm^2) of a 100 mL glass Erlenmeyer (conical) flask provided the treatment surface. Flasks were pretreated with Coatasil™ glass treatment to maximise bio-availability of test compounds by preventing them from binding to the glass surface.
The base of the 100 mL Erlenmeyer flask was treated with 0.5 mL of test sample in acetone and gently swirled. This volume was sufficient to cover the base of the flask. Flasks were left to dry for 24 hours before flea exposure. Adult cat fleas were lightly anaesthetised by cooling and then placed into a sorting chamber, which allowed fleas to revive and jump into the Erlenmeyer flasks. Fifteen (15) adult cat fleas were collected in each flask. The top of the flasks were then covered in Parafilm™ and small holes made to allow gas exchange. A 0.5 mL volume of acetone was applied to the base of an Erlenmeyer flask and the testing proceeded in the same manner described above. Cat fleas in the treatment containers were held under testing conditions for 24 hours. Mortality resulting from the treatments was recorded at 8 and 24 hours.

Rhipicephalus sanguineus [3] = test: Rapid screening protocol for topical application on brown dog ticks (% mortality); design: concentration or dose not given beside the values
Description: d) Rapid Screening Protocol for Topical Application on Brown Dog Ticks (Rhipicephalus sanguineus)
The aim of the test was to determine the presence of significant acaricidal activity in sample compounds or formulations when applied topically on brown dog ticks. A tick was defined as dead if it gave no apparent response when touched lightly and observed for 1 minute. To assess the experimental compound for acaricidal activity, a single dose level was chosen based on known results from previous experiments with a commercially available active reference compound. Both permethrin and fipronil were employed as reference compounds. The insect species tested was the Brown Dog Tick (Rhipicephalus sanguineus). Mixed sex adult ticks were used for tests. The strain used was cultured by von Berky Veterinary Services, Woody Point, QLD, AU and supplied as unfed adult ticks (mixed sex). Ticks were maintained in controlled conditions (temp. 18°±2° C., humidity 75±5% RH).
Test compounds (formulations or active ingredients) were stored in a refrigerator (5±1° C.) unless otherwise specified. Temperature was maintained at 25±1° C. and the humidity was ambient. The screening dose chosen was higher than that known to kill 90% of insects (LD90) using the reference compound. In the case of topical application of active compounds on adult ticks, the reference compound was fipronil and the dose chosen was 10 μg of active per tick (=10 μg of fipronil/1 μl of acetone). Ticks were each treated on the abdomen with 1 μL of a single dose level of test sample in acetone; ten ticks were treated with solvent only (acetone) in each test. Tests were replicated 4 times (total of 40 ticks treated). Ticks were held in recovery containers maintained under appropriate rearing conditions for 24 hours. Mortality resulting from the treatments was recorded at 24 hours. Pooled 24 hour mortality data were converted to percentages.

Ctenocephalides felis [4] = tested on: Ctenocephalides felis
Summary of the method: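 Adult cat fleas (3–7 days post-emergence), 15 per flask in ≥4 replicates, exposed to a dried acetone residue at 1.26 μg/cm^2 on a Coatasil-treated glass flask base. Held at 25±1° C, 75±5% humidity; mortality (immobile or unable to right) scored at 8, 24 and/or 48 h.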

Structure (SMILES) | R. sanguineus LD50 (Rhipicephalus sanguineus [1]) [μg/tick] | C. felis LC50 (Ctenocephalides felis [2]) [ppm] | R. sanguineus Mortality (%) 24 h (Rhipicephalus sanguineus [3]; data from laboratory 1) | C. felis Mortality (%) 8 h (Ctenocephalides felis [4]) [%] | C. felis Mortality (%) 24 h (Ctenocephalides felis [4]) [%] | C. felis LC50 (Ctenocephalides felis [2]; data from laboratory 1) [ppm] | R. sanguineus Mortality (%) 24 h (Rhipicephalus sanguineus [3]; data from laboratory 2) [%] | C. felis Mortality (%) 48 h (Ctenocephalides felis [4]) [%] | C. felis Mortality (%) 24 h (Ctenocephalides felis [4]; 24 h, data from laboratory 1) [%] | C. felis Mortality (%) 48 h (Ctenocephalides felis [4]; 48 h, data from laboratory 1) [%]
CC(=NN1CCOCC1)c1cc(Cl)ccc1NS(=O)(=O)C(F)(F)F [Compound 20] | 0.75 | 0.86 | 95^A % | 100 | 100 |  |  |  |  | 
CC(=NN1CCCCC1)c1cc(Cl)ccc1NS(=O)(=O)C(F)(F)F [Compound 21, N-[2-[1-(1-piperidyl)imino]ethyl-4-chlorophenyl]-trifluoromethanesulfonamide] | 0.64 |  | 78^A % | 100 | 100 | 0.90 |  |  |  | 
CC(=NN1CCOC1=O)c1cc(Cl)ccc1NS(=O)(=O)C(F)(F)F [Compound 23] | 0.99 | 2.0 | 95^A % | 100 | 100 |  |  |  |  | 
CCCN(N=C(C)c1cc(Cl)ccc1NS(=O)(=O)C(F)(F)F)c1ccccc1 [Compound 25] | 1.2 | 1.8 | 75^A % | 100 | 100 |  |  |  |  | 
CCN(N=C(C)c1cc(Cl)ccc1NS(=O)(=O)C(F)(F)F)c1ccc(Cl)cc1 [Compound 26] | 5.4 | 0.12 |  |  | 100 |  | 97 | 100 |  | 
CCCN(N=C(C)c1cc(Cl)ccc1NS(=O)(=O)C(F)(F)F)c1ccc(Cl)cc1 [Compound 27] | 5.5 | 0.23 |  |  | 100 |  | 95 | 100 |  | 
CCN(N=C(C)c1cc(Cl)ccc1NS(=O)(=O)C(F)(F)F)c1ccc(Cl)cc1Cl [Compound 30] | 8.5 | 5.2 |  |  | 100 |  | 90 | 100 |  | 
CCN(N=C(C)c1cc(Cl)ccc1NS(=O)(=O)C(F)(F)F)c1ccccc1 [Compound 34] | 3.6 |  |  |  |  | 0.97 | 100 |  | 100 | 100
CCC(=NN1CCOC1=O)c1cc(Cl)ccc1NS(=O)(=O)C(F)(F)F [Compound 35] | 1.5 | 4.3 |  |  | 100 |  | 100 | 100 |  | 
CCC(=NN1CCOCC1)c1cc(Cl)ccc1NS(=O)(=O)C(F)(F)F [Compound 36] | 1.8 | 2.5 |  |  | 100 |  | 100 | 100 |  | 
CCN(N=C(C)c1cc(Cl)ccc1NS(=O)(=O)C(F)(F)F)c1cccc(Cl)c1 [Compound 38] | 3.6 | 2.5 |  |  | 100 |  | 98 | 100 |  | 
CCN(N=C(C)c1cc(Cl)ccc1NS(=O)(=O)C(F)(F)F)c1ccc(F)cc1 [Compound 39] | 3.6 | 0.14 |  |  | 100 |  | 100 | 100 |  | 
CCCN(N=C(C)c1cc(Cl)ccc1NS(=O)(=O)C(F)(F)F)c1ccc(C(F)(F)F)cc1 [Compound 41] | 3.8 | 0.44 |  |  | 94 |  | 100 | 100 |  | 
CCN(N=C(C)c1cc(Cl)ccc1NS(=O)(=O)C(F)(F)F)c1ccccc1F [Compound 43] | 3.0 | 0.35 |  |  | 90 |  | 100 | 100 |  | 
CC(=NN(c1ccc(F)cc1)C(C)C)c1cc(Cl)ccc1NS(=O)(=O)C(F)(F)F [Compound 48] | 6.3 | 0.64 |  | 95 | 100 |  | 80 |  |  | 
CC(=NN(C)c1ccccc1F)c1cc(Cl)ccc1NS(=O)(=O)C(F)(F)F [Compound 49] | 1.6 |  |  | 100 | 100 | 0.31 | 100 |  |  | 
CC(=NN(C)c1cccc(Cl)c1)c1cc(Cl)ccc1NS(=O)(=O)C(F)(F)F [Compound 51] | 2.6 | 0.82 |  | 100 | 100 |  | 100 |  |  | 
CCN(N=C(C)c1cc(Cl)ccc1NS(=O)(=O)C(F)(F)F)c1ccc(Br)cc1 [Compound 54] | 5.6 | 1.6 |  | 95 | 100 |  | 95 |  |  | 
CC(=NN1CC(=O)NC1=O)c1cc(Cl)ccc1NS(=O)(=O)C(F)(F)F [Compound 55] | 1.7 |  |  | 100 | 100 | 2.5 | 100 |  |  | 
CC(=NN(C)C(=O)c1ccc(Cl)cc1)c1cc(Cl)ccc1NS(=O)(=O)C(F)(F)F [Compound 59] | 1.8 | 2.9 |  | 100 | 100 |  | 100 |  |  | 
CCC(=NNC(=O)c1ccc(Cl)cc1)c1cc(Cl)ccc1NS(=O)(=O)C(F)(F)F [Compound 60] | 7.1 | 4.1 |  | 60 | 100 |  | 75 |  |  | 
